Reference: patent US6545046B2, “Method for enhanced delivery of oxybutynin and compositions thereof” (Theramax Inc., priority 2000, dated 2003)
Read-outs that look alike come from different tables or passages of the source.

How the values were obtained:
[1] = In vivo nasal, oral and intravenous delivery of oxybutynin in rats; plasma levels by HPLC; conditions: rat; for bioavailability: read-out: Bioavailability relative to intravenous administration (100%)
Procedure: The nasal absorption of oxybutynin was studied using an in vivo technique described previously (1). Male Sprague-Dawley rats (body weight 250±25 gm) were used in these studies. Animals were fasted overnight prior to experimentation. Surgical procedures were performed under equithesin anesthesia (3 ml/kg, i.p.). An incision was made in the neck, and the trachea cannulated with polyethylene tubing (PE-260). A closed end tube was inserted through the esophagus to the posterior part of the nasal cavity to prevent drug from entering the esophagus. The nasopalatine passage was then closed with an adhesive agent to prevent drainage of the drug from the nasal cavity to the mouth.
Blood samples were collected from a cannula inserted into the femoral artery. For intravenous drug administration, the jugular vein was cannulated.
Solutions of oxybutynin hydrochloride (5 mg/kg/100 μl) were prepared in normal saline and administered through the right nostril using a microsyringe. For oral administration, rats received an aqueous solution of oxybutynin hydrochloride (5 mg/kg) administered by gavage tube. For intravenous (i.v.) administration, the same dose of oxybutynin was injected into the jugular vein (1 ml/kg body weight). Blood samples after oxybutynin administration were collected before and at […] after drug administration, centrifuged, and serum removed and stored (−70° C.) until analysis.
Differences in the plasma oxybutynin or N-desethyloxybutynin concentrations between i.v., oral, and nasal delivery routes were compared using the Student's t test.
Analysis of oxybutynin and its metabolites N-desethyloxybutynin were performed using HPLC as described by Buyse et al. (2). Extraction of standards for calibration curve and plasma samples were performed as described previously by Hughes et al. (3).
Oxybutynin and its metabolite (N-desethyloxybutynin) were analyzed using a reverse-phase column (25 cm×[…] I.D.) and eluted with mobile phase consisting of 50% acetonitrile in […] potassium phosphate buffer, pH 6.3. The mixture was filtered and degassed prior to use. The flow rate was 0.7 ml/min, and the effluent was monitored with a dual UV detector system at 210 nm.
All determinations were performed by calculating the area ratios of each compound to the internal standard. Unknown amounts were determined from calibration curves run with each day's unknown analysis.

[2] = as above; conditions: male, Sprague-Dawley, rat, mean ± SEM, read-out: AUC0-2 h
[3] = oral administration (Douchamps et al.); cited from earlier work
[4] = cited from earlier work

Structure (SMILES) | tmax ([1]; intranasal oxybutynin 5 mg/kg) [min] | Ratio N-desethyloxybutynin/Oxybutynin ([1]; intranasal oxybutynin 5 mg/kg, mean ± SEM, 4 rats) | Plasma concentration of N-desethyloxybutynin relative to parent compound oxybutynin ([1]; oral oxybutynin 5 mg/kg) | tmax ([1]; oral oxybutynin 5 mg/kg) [min] | bioavailability ([1]; male, Sprague-Dawley, plasma, other: intranasal, intranasal 5 mg/kg) [%] | bioavailability ([1]; male, Sprague-Dawley, plasma, oral 5 mg/kg) [%] | tmax ([1]; male, Sprague-Dawley, plasma, inhaled or intranasal, 5 mg/kg, intranasal oxybutynin 5 mg/kg, read-out: tmax (converted)) [min] | tmax ([1]; male, Sprague-Dawley, plasma, po, 5 mg/kg, oral oxybutynin 5 mg/kg (solution in water), read-out: tmax (converted)) [min] | Increase in bioavailability after intranasal compared to oral administration ([1]; 5 mg/kg) [fold] | tmax ([1]; oral oxybutynin 5 mg/kg (solution in water)) [min] | AUC(0-t) ([2]; inhaled or intranasal, intranasal oxybutynin 5 mg/kg) [µg·h/mL] | AUC(0-t) ([2]; oral oxybutynin 5 mg/kg) [µg·h/mL] | Systemic bioavailability [3] [%] | Patient withdrawal ([4]; intravesical oxybutynin therapy, several studies) | Patients with adverse reactions requiring discontinuance of therapy ([4]; oral 5 mg 3 times daily, clinical studies)
CCNCC#CCOC(=O)C(O)(c1ccccc1)C1CCCCC1 (stereo not drawn) [N-desethyloxybutynin] | 96 | ~0.55 | approximately 12 fold | 66 | – | – | – | – | – | – | – | – | – | – | –
CCN(CC)CC#CCOC(=O)C(O)(c1ccccc1)C1CCCCC1 (stereo not drawn) [oxybutynin, Benzeneacetic acid, a-cyclohexyl-a-hydroxy-4-(diethylamino)-2-butynyl ester] | – | – | – | – | 90 | ~9 | 10 | 30 to 40 | ~10 | 40 | 1.77 ± 0.19 | 0.18 ± 0.053 | < 6 | up to 65% | about 20%
